This note sets out measurements from US20250268844A1, “ANTICANCER AGENTS BASED ON CYCLOPENTENONES” (UNIVERSITY OF CRETE, priority 2022, published 2025).

Structures are written as SMILES.

In experiment [1] the test system is p53. Description: p53 immunoblot in A2780 cells. The class given is cell-based, human. Conditions: 2.5 μM or increasing concentrations, 6 hrs or time course. As for the experimental part:
(§1) FIG. 8: Enones induce the p53 pathway. […] Cell lysates were analyzed for p53 and GAPDH (loading control). (B) A2780 cells were cultured in the presence or absence of 2.5 μM for the indicated time points before being analyzed for p53 and GAPDH levels. (C) Treatment of A2780 cells with 2.5 μM Enone-2 results in the up-regulation of p53-regulated genes (*p<0.05; **p<0.01; ***p<0.001, n=4). (D) Induction of p53 accumulation in AGE60 ovarian carcinoma cells following 6 or 14 hr exposure to 2.5 μM Enone-2. (E) Enone-1 induces the p53 pathway in A2780 cells which were cultured in the presence of 2.5 μM of the drug and analyzed as in (B). (F) Treatment of A2780 cells with 2.5 μM Enone-2 results in the up-regulation of p53-regulated genes (*p<0.05; **p<0.01; ***p<0.001, n=3).
(§2) The effects of Enone-2 on p53 and p53-dependent transcription of cell cycle and cell death-associated genes was confirmed by immunoblotting for p53 and by reverse transcription qPCR (RT-qPCR) for mdm2, p21, bax and bbc3/puma, established p53 target genes.
For orientation: In western blotting, separated proteins are transferred to a membrane and probed.

Experiment [2] relates to HCT15 colorectal carcinoma cells. Description: MTT conversion assay, HCT15. It is filed as cell-based, human. Conditions: 48 hrs treatment. As for the experimental part:
(§3) In particular, Enone-1 and Enone-2 were tested for cytotoxic activity in 17 cell lines representing a broad spectrum of human tumors. They include human colorectal carcinoma (Caco2, RKO, HCT15, HT29), liver (HepG2), lung (A549), ovarian carcinoma (A2780, 2780CP, AGE60, SKOV3), anaplastic large cell lymphoma (Mac1 and Mac2a), breast carcinoma (MDA-MB-231), cervical (HeLa), bladder cancer (VM-CUB-1), melanoma (BRO), and multiple myeloma (MR20).
(§4) Each assay was performed in triplicate and repeated in 2-3 independent experiments. Specifically, to measure cell survival, 20 μl of 10 mg/ml MTT (3-([…])-2,5-diphenyl tetrazolium bromide; Sigma) was added to each well and the plates were incubated at 37° C. in 5% CO2 for 3 hours. The supernatant was removed and the formed crystals were dissolved in 200 μl dimethyl sulphoxide. The plates were then analysed at 450 nm on a plate reader. Growth inhibition (reduction in survival) was calculated by expressing the differences in optical densities between treatment wells and control wells as a percentage of the control.
For orientation: Formazan colour is commonly taken as a measure of viable cells.

Experiment [3] has as its system SKOV3 ovarian carcinoma cells. Description: MTT conversion assay, SKOV3. It is filed as cell-based, human. As for the experimental part:
as §3, §4

Experiment [4] concerns MB49 mouse bladder carcinoma cells. Description: MTT assay, MB49. It is filed as cell-based. The following applies: 48 hrs. As for the experimental part:
FIG. 5: Effects of enone compounds on mouse tumor growth.
as §4
First, the impact of Enone-1 and Enone-2 on the survival of MB49 cells was verified by MTT assays performed as described in FIG. 1.

Experiment [5] concerns 2780CP, a cis-platin-resistant derivative of A2780. Description: MTT conversion assay, 2780CP. The class given is cell-based, human. The following applies: for IC50: 2780CP, ovarian, cis-platin-resistant, 48 hrs treatment, MTT; for sensitivity of 2780CP cells compared with cis-platin-sensitive A2780 cells: MTT conversion assays. As for the experimental part: as §3, §4
Resistance to platinum-based chemotherapy is a major problem in oncology that impacts therapeutic options and limits patient survival. This is relevant to several types of malignancy, including ovarian cancer where platinum resistance frequently occurs. As Enone-1 and 2 show efficacy in reducing survival of A2780 ovarian carcinoma cells, the drugs were also tested in 2780CP, a cis-platin-resistant derivative of A2780 [13].

A further experiment deals with A549 lung cells. Nature of the experiment: MTT conversion assay, A549. The class given is cell-based, human. Conditions: 48 hrs treatment. As for the experimental part:
as §3, §4

For experiment [6], the system named is mdm2, p21, bax and bbc3/puma. Description: RT-qPCR of p53 target genes in A2780 cells. It is filed as cell-based, human. Conditions: 2.5 μM. As for the experimental part: as §1, §2
(Real-time PCR tracks product formation cycle by cycle.)

The test system of experiment [7] is HT29 colorectal carcinoma cells. Description: MTT conversion assay, HT29. The class given is cell-based, human. The following applies: 48 hrs treatment. As for the experimental part:
as §3, §4

For a further experiment, the system named is BRO melanoma cells. Description: MTT conversion assay, BRO. It is filed as cell-based, human. Conditions: 48 hrs treatment. As for the experimental part:
as §3, §4

For experiment [8], the system named is A2780 ovarian carcinoma cells. Description: MTT conversion assay, A2780. The class given is cell-based, human. Conditions: 48 hrs treatment. As for the experimental part: as §3, §4
In the next experiment the test system is HepG2 liver cells. Description: MTT conversion assay, HepG2. The following applies: 48 hrs treatment. The class given is cell-based, human. As for the experimental part:
as §3, §4

Experiment [9] has as its system VM-CUB-1 bladder cancer cells. Description: MTT conversion assay, VM-CUB-1. Conditions: 48 hrs treatment. The class given is cell-based, human. As for the experimental part: as §3, §4
The subject of experiment [10] is MR20 multiple myeloma cells. Nature of the experiment: MTT conversion assay, MR20. It is filed as cell-based, human. The following applies: 48 hrs treatment. As for the experimental part: as §3, §4
Experiment [11] has as its system RKO colorectal carcinoma cells. Description: MTT conversion assay, RKO. The class given is cell-based, human. Conditions: colon, 48 hrs treatment. As for the experimental part: as §3, §4
In experiment [12] the test system is A2780 ovarian cancer cells. Description: PrestoBlue cell viability assay. The class given is cell-based, human. Conditions: 72 hrs treatment, n=3 experiments. As for the experimental part:
The effects of Enone-1 and Enone-2 on cancer cells were confirmed using a second methodology, namely the PrestoBlue assay (PrestoBlue™ Cell Viability Reagent, Thermo Fisher, Catalog number: A13261), a cell permeable resazurin-based solution that functions as a cell viability indicator. A2780 ovarian cancer cells were plated as described above for the MTT assays and Enone drugs were added at increasing concentrations as indicated in FIG. 2. Cell viability was determined 72 hrs later following the addition of PrestoBlue, according to the manufacturer's instructions (Thermo Fisher).

In experiment [13] the test system is AGE60 ovarian carcinoma cells. Nature of the experiment: MTT conversion assay, AGE60. It is filed as cell-based, human. The following applies: 48 hrs treatment. As for the experimental part: as §3, §4
In experiment [14] the test system is Caco-2 colorectal carcinoma cells. Nature of the experiment: MTT conversion assay, Caco-2. The class given is cell-based. The following applies: Homo sapiens, Caco-2, colon, 48 hrs treatment. As for the experimental part: as §3, §4
Experiment [15] relates to p53. Description: siRNA knockdown of Chek2 or Rpl11 and drug-induced p53 activation in A2780 cells. It is filed as cell-based, human. The following applies: A2780 transiently transfected with siRNAs. As for the experimental part:
(§5) FIG. 9. […] A2780 cells were cultured for 6 hrs in the presence of drug concentrations as indicated. (B) Effects of siRNA targeting RPL11 (siRPL11), Chek2 (siChek2) or the unrelated luciferase (Luci) genes on RPL11 and Chek2 mRNA levels quantified by RT-PCR. (C) Effects of siRpl11 on Enone-2 and oxaliplatin (OXA)-induced p53 activation. Expression levels relative to GAPDH are indicated; untreated controls (CNT) were given the arbitrary value of 1. […] Expression levels relative to GAPDH are indicated; untreated controls (CNT) were given the arbitrary value of 1.
To further validate this observation, A2780 cells were transiently transfected with siRNAs targeting Chek2 which is required for DDR-induced p53, or Rpl11 which is required for RS-mediated p53 activation. The efficacy and specificity of the knockdowns were confirmed by RT-qPCR (FIG. 9B).

Experiment [16] has as its system MDA-MB-231 breast carcinoma cells. Nature of the experiment: MTT conversion assay, MDA-MB-231. The class given is cell-based, human. The following applies: 48 hrs treatment. As for the experimental part:
as §3, §4

In experiment [17] the test system is HeLa cervical carcinoma cells. Nature of the experiment: MTT conversion assay, HeLa. It is filed as cell-based, human. Conditions: 48 hrs treatment. As for the experimental part: as §3, §4
Another experiment deals with γH2Ax. Description: γH2Ax immunoblot (DNA damage response marker) in A2780 cells. The class given is cell-based, human. Conditions: 6 hrs, increasing concentrations, relative to untreated controls. As for the experimental part:
as §5

As usually defined, the IC50 is the midpoint of a concentration-inhibition curve. Regarding `C[C@@]1(O)C=CC(=O)C1c1ccc2ccccc2c1` (stereo in doubt) [Enone-1, 4-hydroxy-4-methyl-5-(naphthalen-2-yl)cyclopent-2-en-1-one], the “p53 accumulation (immunoblot)” value with p53 [1] is reported as “induce p53”. Moreover, the IC50 was determined as 1.2 µM in [2] (Homo sapiens, HCT-15, HCT15, colon); 0.8 µM in [3] (Homo sapiens, SK-OV-3, 48 hrs treatment); 1.4 µM in experiment [4]; 0.75 µM in experiment [5] (Homo sapiens, A2780); 1.7 µM in the experiment with A549 lung cells (Homo sapiens); 1.2 µM in [7] (Homo sapiens, HT-29, HT29, colon). Further, the IC50 was found to be 3.9 µM in the experiment with BRO melanoma cells (Homo sapiens); 0.6 µM in experiment [8] (Homo sapiens); 3.8 µM with HepG2 liver cells (Homo sapiens); 1.2 µM in experiment [9] (Homo sapiens); 0.05 µM in experiment [10] (Homo sapiens, Multiple myeloma cell); 1.3 µM in experiment [11] (Homo sapiens). Also, the 50% inhibitory concentration (IC50) in experiment [12] (Homo sapiens) turned out to be 0.2 µM; in experiment [13] (Homo sapiens, Ovarian carcinoma cell), 1 µM; in experiment [14], 1.8 µM. Moreover, the “sensitivity of 2780CP cells compared with cis-platin-sensitive A2780 cells” value in [5] is “nearly as sensitive”; in experiment [5] (listed as Enone1), “remain sensitive”. The “mdm2, p21, bax and bbc3/puma mRNA (p53-dependent gene expression)” value in experiment [6] is “induce p53 and p53-dependent gene expression”.
For the compound `N.N.[Cl][Pt][Cl]` [cis-platin, reference compound], the “p53 accumulation (immunoblot)” value in the experiment on p53 [1] is listed as “less effective”. The IC50 worked out at 14 µM in experiment [2] (HCT15, colon); 4 µM in experiment [3] (48 hrs treatment); 3.8 µM in experiment [4]; 10 µM in experiment [5]; 7.5 µM in the experiment with A549 lung cells; 32 µM in [16]. The IC50 in [7] (HT29, colon) was 13.5 µM; in the experiment on BRO melanoma cells, 15.2 µM; in experiment [8], 1.4 µM; with HepG2 liver cells, 9 µM; in [9], 7.9 µM; in experiment [17], ~31 µM. The IC50 was 31 µM in experiment [17] (listed as Cis-platin); ~5.8 µM in experiment [10]; 5.8 µM in [10] (listed as Cis-platin); 19 µM in experiment [11]; 1.4 µM in experiment [12]; 5 µM in experiment [13]. Further, the “effect of Chek2 or Rpl11 siRNA knockdown on drug-induced p53 activation” value in the experiment on p53 [15] is listed as “Chek2 knockdown ameliorated cis-platin-induced p53 activation”. For the same compound, the “sensitivity of 2780CP cells compared with cis-platin-sensitive A2780 cells” value in experiment [5] was “less sensitive”. The “γH2Ax induction (marker of DDR)” value in the experiment with γH2Ax is on record as “induced γH2Ax”.
For the compound `O=C1[O][Pt]2([NH][C@@H]3CCCC[C@H]3[NH]2)[O]C1=O` [oxaliplatin, reference compound], the “effect of Chek2 or Rpl11 siRNA knockdown on drug-induced p53 activation” value in the experiment on p53 [15] was “depletion of Rpl11 reduced oxaliplatin-induced p53 accumulation”. Also, the 50% inhibitory concentration (IC50) in experiment [12] is 0.27 µM.
